How the values were obtained:
[1] = tested on: MVECs; test: MVEC migration assay with synthetic peptides; type: cell-based; conditions: 5 hours; for MVECs migration, direct activation by peptides: 1 ng/ml; for Increase in MVECs migration, peptides as chemoattractants: 10 ng/ml
Experimental: MVEC migration was evaluated as described above except that MVECs from passage 3 were incubated in EBM-MV SFM. […] The presence of migratory cells was detected using the fluorescent ELISA reader at 480/520 nm (Fluostar BMG Lab Teck) as described in Example 2, hereinabove. […]

[2] = tested on: VEGF-C; test: Real time PCR gene expression in MVECs, VEGF-C; type: cell-based; parameters: key: increased (+); non-increased (−); conditions: 1 ng/ml peptide
Experimental: (§1) Real Time PCR—MVECs from passage 3 were incubated for 24 hours in EBM-MV supplement-free medium (starving media). Following starvation, 1 ng/ml of synthetic peptides LT, QF, SP, TR, YR, and VL and 10 ng/ml of VEGF were added to the plates. Following 1.5 or 6 hours of incubation, total RNA was extracted using TRIsol reagent (Invitrogen Life Technologies, Carlsbad Calif., USA) and 0.8 μg of the extracted RNA was used as a template for reverse transcription (Invitrogen) using random primers (SuperScript III First-Strand Synthesis System for RT-PCR (hvitrogen, Carlsbad Calif., USA) according to the manufacturer's instructions. Resulting cDNAs were subjected to real time PCR amplification using the ABI prism 7000 Sequence Detection System (Applied Biosystems, Foster City, Calif., USA). Oligonucleotide primers were designed using Primer Express Software (Applied Biosystems, Foster City, Calif., USA) according the translated region of VEGF-A (Accession No:NM_003376), VEGF-C (Accession No:NM_005429), KDR (Accession No:NM_002253), FLT-1 (Accession No:NM_002019), HIF-α (Accession No:HSU22431), and GAPDH (Accession No:NM_002046) and are listed in Table 6, hereinbelow. Briefly, a reaction mixture of 20 μl consisting of DDW, oligonucleotide primers (500 nM), cDNA (3 μl), and SYBR Green PCR master kit (Applied Biosystems, Foster City, Calif., USA) was subjected to an amplification program of 15 seconds at 95° C., and 60 seconds at 60° C. for 40 cycles. Results were analyzed using the Sequence Detector Software Version 1 (Applied Biosystenis).
(§2) Peptides effect on gene expression in MVECs—The effect of the synthetic peptides on the expression in MVECs of selected genes (VEGF-A, VEGF-C, KDR, FLT-1 and HIF-1α) related to the VEGF pathway (a major pathway that participated in angiogenic process) was tested. Synthetic peptides were added at 1 ng/ml for 1.5 and 6 hours. After incubation with peptide, RNA was extracted from MVECs and Real Time PCR was performed. Gene expression was calculated as peptide/control (cells without peptide treatment) ratio.

[3] = tested on: mouse ischemic hind limb; test: Mouse ischemic hind limb model, blood perfusion (Laser Doppler Imager); type: in vivo; conditions: 14 and 19 days following peptide injection; for The blood perfusion ratio (in percentages) of the ischemic vs. control limbs, Mean: 10 μg
Experimental: (§3) Mouse ischemic hind limb model—Ischemia was created in the mouse left hind limb by ligation of the femoral artery. The right hind limb served as control. A day after the operation each of the peptides was injected into one site close to the ligation and one site distal to the ligation. Each mouse was treated with each of the peptides in a total amount of 10 μg.
Blood perfusion in ischemic mice—The percent of blood perfusion was measured using a Laser Doppler Imager (PeriMed, Sweden) at 14 and 19 days after peptides injections. The average percent perfusion of each limb was computed and expressed as the ischemic (left)/control (right) blood perfusion ratio.

[4] = tested on: ears of nude mice and Balb/C mice; test: In vivo angiogenesis in a mouse-ear model; conditions: for Number of blood vessels in the ears of injected mice (photographs): 10 μg peptide, subcutaneous injection into ear; for Number of blood vessels: 10 μg/ear, 5 days after inoculation; for Peptide/PBS = ratio between the No. of blood vessels in the peptide-injected ear and in the PBS-injected ear: mouse ears, contralateral ear PBS
Experimental: In Wivo angiogenesis in a mouse-ear model—Ear angiogenesis studies were a modification of an approach described previously (Pettersson, 2000). […] Contralateral ears were injected only with PBS. […] Two days after peptide inoculation, angiogenic effect of peptides could be observed.
Histological sections—Histological sections of the mouse-ears injected with the angiogenic peptides were performed by fixing tissues in 4% buffered formalin. Sections were embedded in paraffin blocks sectioned in 4 μm thick layers and stained with hematoxolin-eosin.

[5] = tested on: dermal microvascular endothelial cells (MVECs); test: Proliferation of dermal microvascular endothelial cells (MVECs) in the presence of synthetic peptides; type: cell-based; conditions: for Increase of MVECs proliferation response / [^3H]-Thymidine uptake in MVECs: normoxia; for [^3H]-Thymidine uptake in MVECs: 0.1-100 ng/ml, 24 hours
Experimental: Proliferation of dermal microvascular endothelial cells (MVECs) in the presence of synthetic peptides—MVECs were incubated with synthetic peptides (LT, SP, and YR) as described above for HUVECs (ECs), except that the MVECs were seeded in EBM-MV medium containing supplements (Cambrex BioWhittaker Cell Biology Products) and MVECs from passage 4 (rather than 3) were used for proliferation experiments.
Synthetic peptides induced proliferation or migration after and under hypoxia treatment—Cell proliferation or migration assays were performed as described in Example 3, hereinabove, except that cells were divided to 3 groups: control cells, cells after exposure to hypoxia conditions or cells proliferating under hypoxia conditions. For cell proliferation assays, ECs were incubated with QF, LT and SP and MVECs were incubated with LT, SP, and YR. For cell migration assays, ECs were incubated with EBM-2 and MVECs were incubated with EBM-MV media.

[6] = tested on: mouse ischemic hind limb; test: Mouse ischemic hind limb model, physiological observations (ladder climbing); type: in vivo; parameters: key: 1 = walk and climb ... 4 = walk with difficulty, cannot climb; conditions: mean score of 10 mice, 10 μg; for Physiological score (ability to climb a ladder) Day 1: 1 = walk and climb ... 4 = walk with difficulties and cannot climb, day 1 post operation; for Physiological score (ability to climb a ladder) Day 4 / Physiological score (ability to climb a ladder) Day 7 / Physiological score (ability to climb a ladder) Day 10: scale 1-4; for Physiological score (ability to climb a ladder) Day 4: day 4 post operation; for Physiological score (ability to climb a ladder) Day 7: day 7 post operation; for Physiological score (ability to climb a ladder) Day 10: day 10 post operation
Experimental: as §3
Physiological observations—Ischemic mice were evaluated for their ability to climb a ladder on day 1, 4, 7, and 10-post operation. The scoring system was as follows: 1—walk and climb; 2—walk and climb with some difficulty, 3—walk and cannot climb the ladder; 4—walk with difficulties and cannot climb the ladder.

[7] = tested on: KDR; test: Real time PCR gene expression in MVECs, KDR; type: cell-based; parameters: key: increased (+); non-increased (−); conditions: 1 ng/ml peptide
Experimental: as §1, §2

[8] = tested on: VEGF-A; test: Real time PCR gene expression in MVECs, VEGF-A; type: cell-based; parameters: key: increased (+); non-increased (−); conditions: 1 ng/ml peptide
Experimental: as §1, §2

[9] = tested on: FLT-1; test: Real time PCR gene expression in MVECs, FLT-1; type: cell-based; parameters: key: increased (+); non-increased (−); conditions: 1 ng/ml peptide
Experimental: as §1, §2

[10] = tested on: HIF-1α; test: Real time PCR gene expression in MVECs, HIF-1α; type: cell-based; parameters: key: increased (+); non-increased (−); conditions: 1 ng/ml peptide
Experimental: as §1, §2

| Sequence | MVECs migration, direct activation by peptides [1] | Increase in MVECs migration, peptides as chemoattractants [1] | VEGF-C Expression after 1.5 hours [2] | VEGF-C Expression after 6 hours [2] | The blood perfusion ratio (in percentages) of the ischemic vs. control limbs, Mean [3] | Number of blood vessels in the ears of injected mice (photographs) [4] | Number of blood vessels [4] | Peptide/PBS = ratio between the No. of blood vessels in the peptide-injected ear and in the PBS-injected ear [4] | Increase of MVECs proliferation response ([5]; 1 ng/ml) | [^3H]-Thymidine uptake in MVECs [5] | Physiological score (ability to climb a ladder) Day 1 [6] | Physiological score (ability to climb a ladder) Day 4 [6] | Physiological score (ability to climb a ladder) Day 7 [6] | Physiological score (ability to climb a ladder) Day 10 [6] | KDR Expression after 1.5 hours [7] | VEGF-A Expression after 1.5 hours [8] | FLT-1 Expression after 1.5 hours [9] | HIF Expression after 1.5 hours [10] | KDR Expression after 6 hours [7] | VEGF-A Expression after 6 hours [8] | other results |
| --- | --- | --- | --- | --- | --- | --- | --- | --- | --- | --- | --- | --- | --- | --- | --- | --- | --- | --- | --- | --- | --- |
| SAHGTSTGVPWP (Phage displayed peptide) | 2.1 folds | 2 fold | + | + | 84.478 percentages | increased number of blood vessels | 15 | 1 | 1.4 fold | significant increase | 2.85 | 2.25 | 1.75 | 1.6 | + | + | + |  |  |  | [^3H]-Thymidine uptake / proliferation of MVECs after and under hypoxia ([5]; after and under hypoxia): significant dose-dependent increase; Increase of MVECs proliferation after hypoxia ([5]; after hypoxia, 10 ng/ml): 1.5 fold; Increase of MVECs proliferation under hypoxia ([5]; under hypoxia, 1 ng/ml): 1.9 fold |
| TLPWLEESYWRP (Phage displayed peptide) [TR] | 2.6 folds | 2 fold | + | + | 86.006 percentages |  | 15 | 5.5 |  |  | 3.05 | 2.5 | 1.6 | 1.4 |  | + | + | + | + | − | Vascularization of mouse ear, histology sections ([4]; 10 μg, compared to control): large blood vessel formation and neovascularization; HIF Expression after 6 hours [10]: + |
| VPWMEPAYQRFL (Phage displayed peptide) [VL] |  | 2 fold | + | + | 95.560 percentages |  | 14 | 5.6 |  |  | 2.75 | 2 | 1.6 | 1.4 |  | + | + | + | + | + | HIF Expression after 6 hours [10]: + |
| YPHIDSLGHWRR (Phage displayed peptide) [YR] | 1.8 folds | 2.4 fold |  |  | 104.349 percentages | increased number of blood vessels | 11 | 7.6 | 1.7 fold | significant increase | 2.75 | 2.5 | 1.4 | 1 | + | + | + | − | − | − | Percent of blood perfusion ratio, ischemic/control limb (significance) [3]: significant increase; FLT-1 Expression after 6 hours ([9]; 6 hours): − |

Source: patent US7473682B2, “Angiogenic peptides and uses thereof” (Ramot at Tel Aviv University Ltd., priority 2003, dated 2009)
